Measurements from US20090253126A1, “Biomarker Detection Assays” (ASTRAZENECA AB, priority 2004, published 2009).

Columns and labels:
Notch signal = conditions: cited from earlier work
ADN mRNA = test: Gene expression profiling / QRT-PCR of adipsin (ADN) mRNA in intestinal tissue of treated rats; format: in vivo; conditions: Han Wistar rats, intraperitoneally, 10, 30 and 100 μmol/kg/bid for 5 days
Procedure: (§1) Using gene expression profiling we detected several deregulated factors that are consistent with Hes-1 KO data. We confirmed the up-regulation of ADN mRNA in intestinal tissue by DBZ and BZ treatment but not AS treatment. […] This up-regulation preceded the appearance of goblet cell metaplasia in the crypts.
(§2) Compounds with varying potency for modulating the Notch1 pathway and causing intestinal metaplasia were injected intraperitoneally into rats twice daily for 5 days at a concentration of 10 μmol/kg, 30 μmol/kg and 100 μmol/kg. A section of duodenum was taken from untreated rats and those treated with compound. Samples were immediately frozen in liquid nitrogen then placed in a freezer maintained at −80° C. for preservation. […]
(§3) Quantitative real-time PCR (QRT-PCR) was performed by creating a standard curve assaying the gene of interest at known cDNA quantities of 50 ng, 25 ng, 8.33 ng, 2.76 ng, 0.910 ng and 0.154 ng. […] Biosource International (Camarillo, Calif.) synthesized oligonucleotide primers and fluorescence resonance energy transfer (FRET) probes. […] The raw data were applied to the standard curve and quantities were extrapolated using Prism by GraphPad Software (San Diego, Calif.). These quantities were then transformed to express fold change relative to the vehicle control (VC).

Math1 transcript = test: Detection of Math1 transcript by quantitative real-time PCR in duodenum of treated rats; format: in vivo; conditions: at earlier time points and at lower dose; Han Wistar rats, intraperitoneally, bid for 5 days
Procedure: as §1, §2, §3

C[C@H](NC(=O)Cc1cc(F)cc(F)c1)C(=O)N[C@@H]1C(=O)N(C)c2ccccc2-c2ccccc21 [DBZ]
Notch signal interruption (Notch signal): known to interrupt the Notch signal | up-regulation of ADN mRNA in intestinal tissue (ADN mRNA): up-regulation | induction of Math1 compared with ADN (Math1 transcript): markedly higher than ADN
